Earlier results, collected in patent US10350275B2, “Methods of cytotoxic gene therapy to treat tumors” (Advantagene, Inc., priority 2013, dated 2019).

Test system: tumors
Settings: monotherapy; Senzer et al 2009

In the case of “Anti-CTLA-4: Immune checkpoint inhibitor antibody; Ipilimumab (anti-CTLA-4) approved for metastatic melanoma”, the “complete and partial responses, share of subjects” value is given as “about 10.9%”.
